Where a name gives a salt, the structure may show the parent alone.

One test concerns the target mouse TAAR1 (Mus musculus (Mouse), UniProt Q923Y8). In words: Radioligand binding assay on mouse TAAR1. The settings on record: mouse TAAR1, HEK-293 membranes; first value of the pair (before the slash); read-out: Ki (μM) mouse/rat. As to the method: (§1) For the construction of expression plasmids the coding sequences of human, rat and mouse TAAR 1 were amplified from genomic DNA essentially as described by Lindemann et al.. The Expand High Fidelity PCR System (Roche Diagnostics) was used with 1.5 mM Mg^2+ and purified PCR products were cloned into pCR2.1-TOPO cloning vector (Invitrogen) following the instructions of the manufacturer. PCR products were subcloned into the pIRESneo2 vector (BD Clontech, Palo Alto, Calif.), and expression vectors were sequence verified before introduction in cell lines.
(§2) HEK293 cells (ATCC # CRL-1573) were cultured essentially as described by Lindemann et al. (2005). For the generation of stably transfected cell lines HEK293 cells were transfected with the pIRESneo2 expression plasmids containing the TAAR coding sequences (described above) with Lipofectamine 2000 (Invitrogen) according to the instructions of the manufacturer, and 24 hrs post transfection the culture medium was supplemented with 1 mg/ml G418 (Sigma, Buchs, Switzerland). After a culture period of about 10 d clones were isolated, expanded and tested for responsiveness to trace amines (all compounds purchased from Sigma) with the cAMP Biotrak Enzyme immunoassay (EIA) System (Amersham) following the non-acetylation EIA procedure provided by the manufacturer.
Radioligand Binding Assay on Mouse TAAR1
(§3) Membrane Preparation and Radioligand Binding.
(§4) HEK-293 cells stably expressing mouse TAAR1 were maintained at 37° C. and 5% CO2 in DMEM high glucose medium, containing fetal calf serum (10%, heat inactivated for 30 min at 56° C.), penicillin/streptomycin (1%), and 375 μg/ml geneticin (Gibco). Cells were released from culture flasks using trypsin/EDTA, harvested, washed twice with ice-cold PBS (without Ca^2+ and Mg^2+), pelleted at 1′000 rpm for 5 min at 4° C., frozen and stored at −80° C. […] The homogenate was centrifuged at 48′000×g for 30 min at 4° C. Subsequently, the supernatant was removed and discarded, and the pellet resuspended in 20 ml HEPES-NaOH (20 mM, pH 7.4) containing 0.1 mM EDTA using the Polytron (20 s at 14′000 rpm). This procedure was repeated and the final pellet resuspended in HEPES-NaOH containing 0.1 mM EDTA and homogenized using the Polytron. Typically, aliquots of 2 ml membrane portions were stored at −80° C. With each new membrane batch the dissociation constant (Kd) was determined via a saturation curve. […] Nonspecific binding was defined as the amount of ^3[H]-(S)-4-[(ethyl-phenyl-amino)-methyl]-4,5-dihydro-oxazol-2-ylamine bound in the presence of 10 μM unlabeled ligand. All compounds were tested at a broad range of concentrations (10 pM to 10 μM) in duplicates. […] The 96 deep well plates were incubated for 1 hr at 4° C. Incubations were terminated by rapid filtration through Unifilter-96 plates (Packard Instrument Company) and glass filters GF/C (Perkin Elmer) presoaked for 1 hr in polyethylenimine (0.3%) and washed 3 times with 1 ml of cold binding buffer. After addition of 45 μl of Microscint 40 (PerkinElmer) the Unifilter-96 plate was sealed and after 1 hr the ratioactivity counted using a TopCount Microplate Scintillation Counter (Packard Instrument Company).

The target in another test is rat TAAR1 (Rattus norvegicus (Rat), UniProt Q923Y9). Nature of the test: Radioligand binding assay on rat TAAR1. To be noted: rat TAAR1, HEK-293 membranes; second value of the pair (line below); read-out: Ki (μM) mouse/rat. As for the experimental part:
as §1, §2
Radioligand Binding Assay on Rat TAAR1
as §3
as §4, with “rat” for “mouse”

Sequence of mouse TAAR1 (Q923Y8 whole entry): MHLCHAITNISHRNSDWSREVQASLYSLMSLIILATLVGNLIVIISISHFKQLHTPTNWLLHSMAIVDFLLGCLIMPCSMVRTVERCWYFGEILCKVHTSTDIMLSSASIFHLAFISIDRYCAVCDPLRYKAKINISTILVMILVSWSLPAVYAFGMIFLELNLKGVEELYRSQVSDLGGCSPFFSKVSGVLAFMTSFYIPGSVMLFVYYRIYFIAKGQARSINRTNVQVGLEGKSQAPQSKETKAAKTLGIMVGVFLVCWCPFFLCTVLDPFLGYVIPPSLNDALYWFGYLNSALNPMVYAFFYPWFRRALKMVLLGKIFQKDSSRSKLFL
Sequence of rat TAAR1 (Q923Y9 whole entry): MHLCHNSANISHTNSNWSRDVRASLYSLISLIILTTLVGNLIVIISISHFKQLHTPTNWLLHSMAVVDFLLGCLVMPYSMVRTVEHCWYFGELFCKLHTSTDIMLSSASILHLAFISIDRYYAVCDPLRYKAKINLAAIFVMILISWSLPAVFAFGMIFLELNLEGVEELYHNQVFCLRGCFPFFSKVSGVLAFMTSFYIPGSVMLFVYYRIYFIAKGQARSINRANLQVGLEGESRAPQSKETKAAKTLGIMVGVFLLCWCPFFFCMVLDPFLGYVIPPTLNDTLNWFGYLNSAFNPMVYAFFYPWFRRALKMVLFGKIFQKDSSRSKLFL

Take `O=C(NCc1cccc(OC(F)F)c1)Nc1ccc([C@H]2CNCCO2)cc1F` [Example 78, (S)-1-(3-(Difluoromethoxy)benzyl)-3-(2-fluoro-4-(morpholin-2-yl)phenyl)urea]: the Ki at mouse TAAR1 was found to be 0.0012 µM; on rat TAAR1 it was 0.0039 µM.

In the case of `O=C(Nc1cnc(C(F)(F)F)nc1)Nc1ccc([C@@H]2CNCCO2)cc1Cl` [Example 52, 1-((R)-2-Chloro-4-morpholin-2-yl-phenyl)-3-(2-trifluoromethyl-pyrimidin-5-yl)-urea], the Ki at mouse TAAR1 was 0.0049 µM; on rat TAAR1, 0.0058 µM.

Take `Cc1nc(C(=O)Nc2ccc([C@H]3CNCCO3)cc2F)ccc1C#N` [Example 135, (S)-5-Cyano-N-(2-fluoro-4-(morpholin-2-yl)phenyl)-6-methylpicolinamide hydrochloride]: the Ki on mouse TAAR1 came to 0.0105 µM; on rat TAAR1, 0.578 µM.

Regarding `O=C(Nc1ccc([C@@H]2CNCCO2)c(F)c1)c1ccnc(C(F)(F)F)c1` [Example 83, (R)—N-(3-Fluoro-4-(morpholin-2-yl)phenyl)-2-(trifluoromethyl)isonicotinamide hydrochloride], the Ki at mouse TAAR1 was 0.006 µM; at rat TAAR1, 0.0075 µM.

In the case of `N#Cc1ccc(OC(F)F)c(NC(=O)Nc2ccc([C@@H]3CNCCO3)cc2F)c1` [Example 72, 1-(5-Cyano-2-difluoromethoxy-phenyl)-3-((R)-2-fluoro-4-morpholin-2-yl-phenyl)-urea hydrochloride], the Ki turned out to be 0.0019 µM at mouse TAAR1 and 0.001 µM on rat TAAR1.

As to `Cc1cc(C(=O)Nc2ccc([C@H]3CNCCO3)cc2F)cc(C(N)=O)n1` [Example 119, (S)—N4-(2-Fluoro-4-(morpholin-2-yl)phenyl)-6-methylpyridine-2,4-dicarboxamide hydrochloride], the Ki was 0.0844 µM at mouse TAAR1 and 0.687 µM on rat TAAR1.

Consider `N#Cc1cccc(NC(=O)Nc2ccc([C@H]3CNCCO3)cc2F)c1` [Example 4, 1-(3-Cyano-phenyl)-3-((S)-2-fluoro-4-morpholin-2-yl-phenyl)-urea], for which the Ki on mouse TAAR1 was determined as 0.0017 µM; on rat TAAR1, 0.0028 µM.

For the compound `O=C(Nc1ccc([C@H]2CNCCO2)cc1F)c1cnn(-c2cncc(C(F)(F)F)n2)c1` [Example 125, (S)—N-(2-Fluoro-4-(morpholin-2-yl)phenyl)-1-(6-(trifluoromethyl)pyrazin-2-yl)-1H-pyrazole-4-carboxamide hydrochloride], the Ki at mouse TAAR1 turned out to be 0.0182 µM; at rat TAAR1 it was 0.0076 µM.

In the case of `N#Cc1ccc(OC(F)F)c(NC(=O)Nc2ccc([C@@H]3CNCCO3)cc2Cl)c1` [Example 47, (R)-1-(2-Chloro-4-(morpholin-2-yl)phenyl)-3-(5-cyano-2-(difluoromethoxy)phenyl)urea], the Ki on mouse TAAR1 is 0.002 µM; on rat TAAR1 it was 0.0012 µM.

For the compound `CCOc1cc(C(=O)Nc2ccc([C@@H]3CNCCO3)c(F)c2)ccn1` [Example 84, (R)-2-Ethoxy-N-(3-fluoro-4-(morpholin-2-yl)phenyl)isonicotinamide hydrochloride], the Ki on mouse TAAR1 was determined as 0.0036 µM; at rat TAAR1 it was 0.0047 µM.

Regarding `N#Cc1ccnc(C(=O)Nc2ccc([C@H]3CNCCO3)cc2F)c1` [Example 79, (S)-4-Cyano-N-(2-fluoro-4-(morpholin-2-yl)phenyl)picolinamide hydrochloride], the Ki on mouse TAAR1 is 0.0022 µM; on rat TAAR1 it was 0.196 µM.

On to `CCOc1ccc(C(=O)Nc2ccc([C@@H]3CNCCO3)c(Cl)c2)cn1` [Example 92, (R)—N-(3-Chloro-4-(morpholin-2-yl)phenyl)-6-ethoxynicotinamide hydrochloride], for which the Ki on mouse TAAR1 was determined as 0.0048 µM; on rat TAAR1, 0.0045 µM.

As for `N#Cc1ccc(-n2cc(C(=O)Nc3ccc([C@H]4CNCCO4)cc3F)cn2)cc1` [Example 111, (S)-1-(4-Cyanophenyl)-N-(2-fluoro-4-(morpholin-2-yl)phenyl)-1H-pyrazole-4-carboxamide hydrochloride], the figures for the Ki on mouse TAAR1 and at rat TAAR1 were 0.0074 µM and 0.0086 µM, respectively.

For `CCOc1cc(C(=O)Nc2ccc([C@@H]3CNCCO3)c(Cl)c2)ccn1` [Example 91, (R)—N-(3-Chloro-4-(morpholin-2-yl)phenyl)-2-ethoxyisonicotinamide hydrochloride], the Ki at mouse TAAR1 worked out at 0.0053 µM; on rat TAAR1, 0.003 µM.

Take `CCOc1cc(C(=O)Nc2ccc([C@H]3CNCCO3)c(Cl)c2)ccn1` [Example 94, (S)—N-(3-Chloro-4-(morpholin-2-yl)phenyl)-2-ethoxyisonicotinamide hydrochloride]: the Ki at mouse TAAR1 amounted to 0.0033 µM; on rat TAAR1, 0.0381 µM.

Turning to `N#Cc1cccc(CNC(=O)Nc2ccc([C@@H]3CNCCO3)cc2F)c1` [Example 15, 1-(3-Cyano-benzyl)-3-((R)-2-fluoro-4-morpholin-2-yl-phenyl)-urea], the Ki at mouse TAAR1 is 0.0074 µM; on rat TAAR1, 0.0544 µM.

Take `O=C(Nc1ccc(Cl)cn1)Nc1ccc([C@H]2CNCCO2)cc1Cl` [Example 64, (S)-1-(2-Chloro-4-(morpholin-2-yl)phenyl)-3-(5-chloropyridin-2-yl)urea]: the Ki on mouse TAAR1 amounted to 0.0015 µM; at rat TAAR1, 0.003 µM.

For the compound `O=C(NCc1cccc(OC(F)F)c1)Nc1ccc([C@@H]2CNCCO2)cc1F` [Example 77, (R)-1-(3-(Difluoromethoxy)benzyl)-3-(2-fluoro-4-(morpholin-2-yl)phenyl)urea], the Ki at mouse TAAR1 was 0.001 µM; on rat TAAR1, 0.0064 µM.

Take `O=C(Nc1ccc(Cl)nc1)Nc1ccc(C2CNCCO2)cc1Cl` (racemic) [Example 14, (RS)-1-(2-Chloro-4-morpholin-2-yl-phenyl)-3-(6-chloro-pyridin-3-yl)-urea]: the Ki at rat TAAR1 was 0.0039 µM.

As for `O=C(Nc1ccc(Cl)nc1)Nc1ccc([C@H]2CNCCO2)cc1Cl` [Example 19, (S)-1-(2-Chloro-4-morpholin-2-yl-phenyl)-3-(6-chloro-pyridin-3-yl)-urea], the Ki at rat TAAR1 is 0.0034 µM.

For `N#Cc1cc(C2CNCCO2)ccc1NC(=O)c1ccn(-c2ccc(F)cc2)n1` (racemic) [Example 28, (RS)—N-(2-Cyano-4-(morpholin-2-yl)phenyl)-1-(4-fluorophenyl)-1H-pyrazole-3-carboxamide], the Ki at mouse TAAR1 was determined as 0.014 µM.

Turning to `O=C(Nc1ccc(Cl)nc1)Nc1ccc([C@@H]2CNCCO2)cc1Cl` [Example 20, (R)-1-(2-Chloro-4-morpholin-2-yl-phenyl)-3-(6-chloro-pyridin-3-yl)-urea], the Ki at rat TAAR1 worked out at 0.005 µM.

`N#Cc1cccc(NC(=O)Nc2ccc(C3CNCCO3)cc2C#N)c1` (racemic) [Example 33, (RS)-1-(2-Cyano-4-morpholin-2-yl-phenyl)-3-(3-cyano-phenyl)-urea]: at rat TAAR1, the Ki amounted to 1.51 µM.

(Values after patent US9029370B2, “Substituted benzamide derivatives” (Hoffmann-La Roche Inc., priority 2011, dated 2015).)
